{"source": "patent US20180087079A1", "about": "“METHODS OF USING CELL-CYCLE INHIBITORS TO MODULATE ONE OR MORE PROPERTIES OF A CELL CULTURE” (AMGEN INC., priority 2013, published 2018)", "key": {"[1]": {"system": "CHO cells", "experiment": "Initial dosage and time course study: cell viability and growth arrest (Table 4)", "format": "cell-based, Chinese hamster", "experimental": "In one set of experiments, a cell cycle analysis was performed for various cell cycle inhibitory compounds. Briefly, CHO cells are grown in 24 deep well plate (for example, Corning Axygen deep well plates; Corning, Amsterdam, The Netherlands), using standard cell-culture medium, under conditions promoting growth of the cells (for example 36 degreesC, 5% CO2) in the presence of various cell cycle inhibitors. Samples are collected at various time points, and cell cycle profiles are obtained by propidium iodide (PI) staining followed by fluorescence-activated cell sorting (FACS) analysis. Results for compounds 6-acetyl-8-cyclopentyl-5-methyl-2-((5-(1-piperazinyl)-2-pyridinyl)amino)pyrido[2,3-d][…] (Compound A) and N-(6-(4-(dimethylamino)-1-piperidinyl)-3-pyridazinyl)-9-(trans-4-methylcyclohexyl)-9H-pyrido[4′,3′,:4,5]pyrrolo[2,3-d]pyrimidin-2-amine (Compound B) are shown in Table 1 below.\nVarious compounds were tested in an initial dosage and time course study to ascertain their effects on cell viability and growth phase arrest substantially as described previously in Example 1. Compounds were evaluated for effect, or lack thereof, on viability, as well as their ability to cause growth arrest. Compounds that maintained at least 80% cell viability at one or more concentrations for the five day duration of this assay were regarded as having relatively little or no cell cytotoxicity."}, "[2]": {"target": "T1, CDK4/Cyclin D1 (Homo sapiens, UniProt P11802)", "T1 construct": "purchased Cell Signaling Technology", "T1 sequence (P11802 whole entry, species assumed, the tested form may be a part)": "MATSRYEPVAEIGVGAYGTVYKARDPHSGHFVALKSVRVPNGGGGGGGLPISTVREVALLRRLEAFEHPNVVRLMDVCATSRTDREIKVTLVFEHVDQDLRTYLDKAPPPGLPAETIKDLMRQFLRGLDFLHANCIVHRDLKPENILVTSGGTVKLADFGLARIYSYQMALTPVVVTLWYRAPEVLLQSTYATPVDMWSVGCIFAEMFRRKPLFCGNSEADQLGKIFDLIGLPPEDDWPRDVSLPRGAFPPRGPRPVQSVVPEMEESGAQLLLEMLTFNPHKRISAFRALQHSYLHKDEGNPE", "T1 sequence (P24385 whole entry partner, species assumed, the tested form may be a part)": "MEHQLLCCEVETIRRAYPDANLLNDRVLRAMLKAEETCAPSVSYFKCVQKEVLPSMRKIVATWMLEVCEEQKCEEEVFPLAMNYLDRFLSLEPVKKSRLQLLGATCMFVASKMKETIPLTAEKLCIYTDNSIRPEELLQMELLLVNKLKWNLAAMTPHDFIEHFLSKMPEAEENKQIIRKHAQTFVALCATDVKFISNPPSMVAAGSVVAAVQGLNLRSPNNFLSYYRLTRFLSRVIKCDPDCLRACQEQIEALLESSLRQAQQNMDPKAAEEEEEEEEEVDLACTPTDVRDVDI", "experiment": "CDK4 filtration kinase assay", "format": "biochemical", "details": "CDK4/Cyclin D1, Rb fragment substrate, [33P]-ATP", "procedure,_shortened": "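Radiometric filtration assay: 0.3 μg CDK4/cyclin D1 with 1 μg Rb fragment (aa773-928) and 1 μCi [33P]-ATP in Tris pH 7.4 buffer, 1 h at room temperature. TCA-precipitated protein counted by scintillation; IC50 by non-linear regression.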"}, "[3]": {"system": "Colo205", "experiment": "[14C]-thymidine incorporation cell proliferation inhibition assay", "format": "cell-based", "details": "Homo sapiens, COLO 205, 72 hour incubation", "procedure,_shortened": "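Colo205 cells seeded at 5×10^3 cells/well, incubated overnight, then exposed to serially diluted compound with 0.1 μCi [14C]-thymidine. Isotope incorporation read after 72 h. IC50 from non-linear regression.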"}, "[4]": {"system": "mammalian cells such as CHO cells", "experiment": "Predicted specific productivity of recombinant protein for Compound M", "format": "cell-based, Chinese hamster", "details": "predicted from Table 4, structural similarity, CDK4 assay and cell proliferation assay"}}, "data": [{"smiles": "CC(=O)c1c(C)c2cnc(Nc3ccc(N4CCNCC4)nn3)nc2n(C2CCCC2)c1=O", "note": "[Compound M, 6-acetyl-8-cyclopentyl-5-methyl-2-((6-(piperazin-1-yl)pyridazin-3-yl)amino)pyrido[2,3-d]pyrimidin-7(8H)-one]", "values": [{"measurement": "VCD", "setting": "[1]; 2.5 microM, D 1", "value": "0.4656 e6/mL"}, {"measurement": "VCD", "setting": "[1]; 2.5 microM, D 2", "value": "0.6879 e6/mL"}, {"measurement": "Viability", "setting": "[1]; 2.5 microM, D 2", "value": 97.90, "unit": "%"}, {"measurement": "VCD", "setting": "[1]; 2.5 microM, D 3", "value": "1.1916 e6/mL"}, {"measurement": "Viability", "setting": "[1]; 2.5 microM, D 3", "value": 97.65, "unit": "%"}, {"measurement": "VCD", "setting": "[1]; 2.5 microM, D 4", "value": "2.1883 e6/mL"}, {"measurement": "Viability", "setting": "[1]; 2.5 microM, D 4", "value": 96.47, "unit": "%"}, {"measurement": "VCD", "setting": "[1]; 5 microM, D 1", "value": "0.4129 e6/mL"}, {"measurement": "VCD", "setting": "[1]; 5 microM, D 2", "value": "0.5439 e6/mL"}, {"measurement": "Viability", "setting": "[1]; 5 microM, D 2", "value": 97.90, "unit": "%"}, {"measurement": "VCD", "setting": "[1]; 5 microM, D 3", "value": "0.8760 e6/mL"}, {"measurement": "Viability", "setting": "[1]; 5 microM, D 3", "value": 97.67, "unit": "%"}, {"measurement": "VCD", "setting": "[1]; 5 microM, D 4", "value": "1.4543 e6/mL"}, {"measurement": "Viability", "setting": "[1]; 5 microM, D 4", "value": 95.90, "unit": "%"}, {"measurement": "VCD", "setting": "[1]; 10 microM, D 1", "value": "0.4204 e6/mL"}, {"measurement": "VCD", "setting": "[1]; 10 microM, D 2", "value": "0.4984 e6/mL"}, {"measurement": "Viability", "setting": "[1]; 10 microM, D 2", "value": 97.90, "unit": "%"}, {"measurement": "VCD", "setting": "[1]; 10 microM, D 3", "value": "0.7601 e6/mL"}, {"measurement": "Viability", "setting": "[1]; 10 microM, D 3", "value": 97.06, "unit": "%"}, {"measurement": "VCD", "setting": "[1]; 10 microM, D 4", "value": "1.2297 e6/mL"}, {"measurement": "Viability", "setting": "[1]; 10 microM, D 4", "value": 95.85, "unit": "%"}, {"measurement": "VCD", "setting": "[1]; 20 microM, D 1", "value": "0.3915 e6/mL"}, {"measurement": "VCD", "setting": "[1]; 20 microM, D 2", "value": "0.4101 e6/mL"}, {"measurement": "Viability", "setting": "[1]; 20 microM, D 2", "value": 97.90, "unit": "%"}, {"measurement": "VCD", "setting": "[1]; 20 microM, D 3", "value": "0.5348 e6/mL"}, {"measurement": "Viability", "setting": "[1]; 20 microM, D 3", "value": 97.31, "unit": "%"}, {"measurement": "VCD", "setting": "[1]; 20 microM, D 4", "value": "0.8023 e6/mL"}, {"measurement": "Viability", "setting": "[1]; 20 microM, D 4", "value": 96.04, "unit": "%"}, {"measurement": "cytotoxicity and growth arrest properties", "setting": "[1]; compared with Compound A", "value": "very similar, at similar concentrations, to the properties of Compound A"}, {"measurement": "IC50", "setting": "[2]", "value": 15, "unit": "nM"}, {"measurement": "IC50", "setting": "[3]", "value": 92, "unit": "nM"}, {"measurement": "increase in specific productivity (qP) of recombinant protein", "setting": "[4]", "value": "> 200", "unit": "%"}]}]}
